Six compounds from patent US20250000788A1, “BIOCOMPATIBLE DEVICES FOR CELL-BASED THERAPIES AND RELATED METHODS” (SIGILON THERAPEUTICS, INC., priority 2021, published 2025) can be followed below.

Data set [1] is described as follows: Release of soluble drug from alginate spheres containing drug particles, incubated in Normosol. The data set is classed as physicochemical. The note with it: 1 ml Normosol, 37 C; over a 62 (Cyclosporine A) and 32 (TAH) day period respectively; FIG. 1B, 2B. An excerpt:
Cyclosporine A particles and Triamcinolone Hexacetonide (TAH) particles were encapsulated in the inner compartment of two compartment alginate hydrogel capsules (“spheres”).

Data set [2] concerns immune-competent C57Bl/6 mice. As to the kind of experiment: PFO induction on spheres with GLA-secreting human cells and drug particles implanted in the peritoneum of mice. The data set is classed as in vivo. The note with it: explanted after 20 days; for PFO induction on explanted spheres (brightfield micrographs): GLA-secreting human cells co-encapsulated with drug particles, peritoneum; for computer aided opacity scoring of PFO induction: FIG. 4B. From the text:
GLA-secreting human cells were co-encapsulated with particles of the indicated drug and implanted in the peritoneum of immune-competent C57Bl/6 mice.
GLA-secreting human ARPE-19 cells were co-encapsulated with or without TAH particles into spheres that were then implanted in the peritoneum of immune-competent C57Bl/6 mice.

Data set [3] concerns immune-competent C57Bl/6 mice. As to the kind of experiment: PFO on spheres with mIL-10 secreting ARPE-19 cells and glucocorticoid particles implanted in the peritoneum of mice. The conditions noted are these: mIL-10 secreting ARPE-19 cells, explanted at 28 days, FIGS. 5C-5L. The data set is classed as in vivo.
Data set [4] has as its system immune-competent C57Bl/6 mice. Put plainly: In vivo hGLA production and viability of GLA-secreting human cells co-encapsulated with TAH crystals, implanted in mice. As for the experimental part: GLA-secreting human cells were co-encapsulated with TAH crystals into spheres that were then implanted in the peritoneum of immune-competent C57Bl/6 mice. The amount of hGLA produced by the spheres (e.g., devices) in vivo at site of implantation and in systemic circulation was measured.

In data set [5] the test system is immune-competent Sprague Dawley rats. As to the kind of experiment: PFO on spheres with FF particles and ARPE-19 cells implanted in the peritoneum of rats. The conditions noted are these: unmodified ARPE-19 cells or cells secreting one of two parathyroid hormone fusion proteins, 21 days, data not shown. The data set is classed as in vivo. From the text:
In a third experiment, spheres co-encapsulating FF particles and either unmodified human ARPE-19 cells or ARPE-19 cells genetically modified to secrete one of two different fusion proteins comprising human parathyroid hormone were implanted in the peritoneum of immune-competent Sprague Dawley rats (five rats per group).

The mark [6] stands for this setting: 20 days post-implantation, FIG. 6.

As to `CC(C)(C)CC(=O)OCC(=O)[C@@]12OC(C)(C)O[C@@H]1C[C@H]1[C@@H]3CCC4=CC(=O)C=C[C@]4(C)[C@@]3(F)[C@@H](O)C[C@@]12C` [TAH, triamcinolone hexacetonide], the “soluble drug released from the spheres into the Normosol solution” value in data set [1] is given as “extended release”. Further, the “PFO induction on explanted spheres (brightfield micrographs)” value (from here on “PFO induction on explanted spheres”) in data set [2] is listed as “completely prevented induction of PFO”. The “PFO on explanted spheres” value in data set [3] is “minimal to no PFO”. In data set [4] (setting [6]), the hGLA in plasma result was “Significant levels of hGLA” and the “hGLA in the peritoneal lavage” value was “Significant levels of hGLA”. Also, the “viability in vivo of co-encapsulated GLA-secreting human cells” value in data set [4] (retrieved spheres, over a course of 20 days, data not shown) is given as “maintained their viability”.

As for `COc1c(C)c2c(c(O)c1C/C=C(\C)CCC(=O)OCCN1CCOCC1)C(=O)OC2` [MMF], in data set [2], the “PFO induction on explanted spheres” value is given as “extensive PFO induction” and the “computer aided opacity scoring of PFO induction” value is on record as “no statistically significant decrease in PFO induction”.

In the case of fluticasone furoate [FF], the “PFO on explanted spheres” value in data set [3] and in data set [5] was “minimal to no PFO” in each case.

For fluticasone propionate [FP], the “PFO on explanted spheres” value in data set [3] is reported as “minimal to no PFO”.

Regarding `C[C@@H]1C[C@H]2[C@@H]3CCC4=CC(=O)C=C[C@]4(C)[C@@]3(Cl)[C@@H](O)C[C@]2(C)[C@@]1(OC(=O)c1ccco1)C(=O)CCl` [MF, mometasone furoate], in data set [3], the “PFO on explanted spheres” value is recorded as “minimal to no PFO”.

Regarding `C[C@@H]1CCN(C(=O)CC#N)C[C@@H]1N(C)c1ncnc2[nH]ccc12` [Tofactitinib], in data set [2], the “PFO induction on explanted spheres” value is reported as “extensive PFO induction” and the “computer aided opacity scoring of PFO induction” value is listed as “no statistically significant decrease in PFO induction”.
